Test results published in ChEMBL document CHEMBL1201862, “PubChem BioAssay data set” (2004).
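These data come from cells grown in 96-well plates and exposed to compound for 48 hours at five concentrations. The concentration for 50% growth inhibition is given as GI50.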 Calls of active or inactive are those of the source. No stated cut-off is given here; in the data, active = GI50 up to about 1.1 µM and inactive = higher.

Key:
Experiment in all cases: growth of human tumour cells (NCI), 48 h
[1] = system: 786-0
[2] = system: A498
[3] = system: A549
[4] = system: CAKI-1
[5] = system: CCRF-CEM
[6] = system: COLO 205
[7] = system: DLD-1
[8] = system: DMS-114
[9] = system: DMS-273
[10] = system: EKVX
[11] = system: HCC 2998
[12] = system: HCT-116
[13] = system: HCT-15
[14] = system: HOP-18
[15] = system: HOP-62
[16] = system: HOP-92
[17] = system: HT-29
[18] = system: IGROV-1
[19] = system: K562
[20] = system: KM-20L2
[21] = system: LOX IMVI
[22] = system: LXFL 529
[23] = system: M14
[24] = system: M19-MEL
[25] = system: MOLT-4
[26] = system: Malme-3M
[27] = system: NCI-H226
[28] = system: NCI-H23
[29] = system: NCI-H522
[30] = system: OVCAR-3
[31] = system: OVCAR-4
[32] = system: OVCAR-5
[33] = system: OVCAR-8
[34] = system: RPMI-8226
[35] = system: RXF 393
[36] = system: SF-268
[37] = system: SF-295
[38] = system: SF-539
[39] = system: SK-MEL-28
[40] = system: SK-MEL-2
[41] = system: SK-MEL-5
[42] = system: SK-OV-3
[43] = system: SN12C
[44] = system: SNB-19
[45] = system: SNB-75
[46] = system: SNB-78
[47] = system: SW-620
[48] = system: TK-10
[49] = system: U-251
[50] = system: UACC-257
[51] = system: UACC-62
[52] = system: UO-31
[53] = system: XF498
[54] = system: ACHN
[55] = system: HL-60
[56] = system: KM12
[57] = system: NCI-H460
[58] = system: BT-549
[59] = system: DU-145
[60] = system: Hs-578T
[61] = system: MCF7
[62] = system: MDA-MB-231
[63] = system: MDA-MB-435
[64] = system: MDA-N
[65] = system: NCI/ADR-RES
[66] = system: PC-3
[67] = system: SR
[68] = system: T47D
[69] = system: RXF 631

Measured: GI50

CC(=O)Nc1ccc(/C=C(\NC(=O)c2ccccc2)c2nc3ccc4c(c3[nH]2)C(=O)c2ccccc2C4=O)cc1
active: [5] 0.904 µM
39.2 µM: [13]
inactive: [1] 35.6 µM | [2] 7.78 µM | [3] 12.5 µM | [4] 5.02 µM | [6] 57.8 µM | [7] 13.8 µM | [8] 17.9 µM | [9] 32.7 µM | [10] 24.3 µM | [11] > 100 µM | [12] 12.2 µM | [14] 11 µM | [15] > 100 µM | [16] 22.9 µM | [17] 45.6 µM | [18] 7.13 µM | [19] 19.9 µM | [20] 46.5 µM | [21] 15.1 µM | [22] 28.8 µM | [23] 43.1 µM | [24] 78.3 µM | [25] 2.88 µM | [26] > 100 µM | [27] > 100 µM | [28] 21.6 µM | [29] 4.9 µM | [30] 12.4 µM | [31] 56.8 µM | [32] > 100 µM | [33] 22.1 µM | [34] 4.46 µM | [35] 4.66 µM | [36] 5.94 µM | [37] 22.6 µM | [38] 17.5 µM | [39] 45 µM | [40] 48.8 µM | [41] 21.8 µM | [42] 72.4 µM | [43] 25.4 µM | [44] 35.2 µM | [45] 9.51 µM | [46] 58.9 µM | [47] 18.9 µM | [48] 17.5 µM | [49] 16.4 µM | [50] > 100 µM | [51] 17.9 µM | [52] 1.59 µM | [53] 84.1 µM

N#Cc1c(-c2ccccc2)cc(-c2cccs2)c(C#N)c1N
active: [14] 0.0134 µM
> 100 µM: [13]
inactive: [1] > 100 µM | [2] > 100 µM | [3] > 100 µM | [54] > 100 µM | [4] > 100 µM | [5] > 100 µM | [6] > 10 µM | [7] > 100 µM | [8] > 10 µM | [9] > 100 µM | [10] > 100 µM | [11] > 100 µM | [12] > 100 µM | [55] > 100 µM | [15] > 100 µM | [16] > 100 µM | [17] > 100 µM | [18] > 10 µM | [19] > 100 µM | [20] > 100 µM | [56] > 100 µM | [21] > 100 µM | [22] > 100 µM | [23] > 100 µM | [24] > 10 µM | [25] > 100 µM | [26] > 100 µM | [57] > 100 µM | [29] > 100 µM | [30] > 100 µM | [31] > 100 µM | [33] > 100 µM | [34] > 100 µM | [36] > 100 µM | [37] > 100 µM | [38] > 100 µM | [41] > 100 µM | [42] > 10 µM | [43] > 100 µM | [44] > 100 µM | [45] 12.2 µM | [46] > 100 µM | [47] > 100 µM | [48] > 100 µM | [49] > 100 µM | [50] > 100 µM | [51] > 10 µM | [53] > 100 µM

COC(=O)/C(=C/c1ccc(OC)cc1)c1cc(OC)c(OC)c(OC)c1
active: [9] 0.746 µM | [55] 0.406 µM | [17] 0.524 µM | [60] 0.957 µM | [19] 0.366 µM | [56] 0.521 µM | [23] 1.06 µM | [61] 0.604 µM | [63] 0.112 µM | [64] 0.133 µM | [29] 0.614 µM | [65] 0.514 µM | [30] 0.527 µM | [66] 0.693 µM | [37] 0.706 µM | [41] 0.569 µM | [67] 0.379 µM | [47] 0.643 µM | [51] 0.631 µM
0.646 µM: [13]
inactive: [1] 4.12 µM | [2] 7.05 µM | [3] 2.99 µM | [54] 9.93 µM | [58] 34 µM | [4] 1.12 µM | [5] 1.39 µM | [6] 1.47 µM | [7] 2.61 µM | [8] 2.96 µM | [59] 1.69 µM | [10] 8.69 µM | [11] 10.7 µM | [12] 2.16 µM | [14] > 100 µM | [15] 1.53 µM | [16] 3.98 µM | [18] 2.48 µM | [20] 1.12 µM | [21] 4.42 µM | [22] 3.73 µM | [24] 3.46 µM | [62] 3.38 µM | [25] 1.44 µM | [26] 1.2 µM | [27] 6.55 µM | [28] 2.84 µM | [57] 5.11 µM | [31] 7.43 µM | [32] 14.9 µM | [33] 4.28 µM | [34] 2.52 µM | [35] 1.24 µM | [36] 6.01 µM | [38] 1.55 µM | [39] 5.89 µM | [40] 3.18 µM | [42] 1.34 µM | [43] 5.08 µM | [44] 3.62 µM | [45] 1.29 µM | [46] 5.02 µM | [68] 7.13 µM | [48] 5.62 µM | [49] 2 µM | [50] 7.83 µM | [52] 5.46 µM | [53] 4.89 µM

c1ccc2c(c1)[nH]c1c2nc2ccccn21
inactive: [1] 81.3 µM | [2] 85.5 µM | [4] 67.9 µM | [7] 66.1 µM | [11] > 100 µM | [15] > 100 µM | [19] 74.3 µM | [24] > 100 µM | [27] > 100 µM | [29] > 100 µM | [35] > 100 µM | [69] > 100 µM | [37] > 100 µM | [38] > 100 µM | [40] > 100 µM | [43] > 100 µM | [67] > 100 µM | [53] > 100 µM

Cc1ccc(N2C(=O)C(Cl)=C(Cl)C2=O)cc1
19.2 µM: [13]
inactive: [1] 17.3 µM | [2] > 100 µM | [3] 37.6 µM | [54] 19.6 µM | [4] 17.1 µM | [5] 5.11 µM | [6] 16.1 µM | [7] 20.9 µM | [8] 19 µM | [9] 62.5 µM | [10] 21.5 µM | [11] 34.4 µM | [12] 17 µM | [14] 19 µM | [15] 30.1 µM | [16] 18.2 µM | [17] 19.1 µM | [18] 20.8 µM | [19] 18.7 µM | [20] 24.2 µM | [56] 20.5 µM | [21] 23.6 µM | [22] 19.1 µM | [23] 19.2 µM | [24] 21 µM | [25] 16.4 µM | [26] 18.7 µM | [27] > 100 µM | [28] 20.7 µM | [57] > 100 µM | [29] 13 µM | [30] 16.9 µM | [31] 19.2 µM | [32] 18 µM | [34] 18.8 µM | [35] 12.5 µM | [69] 21.1 µM | [36] 17.9 µM | [37] 71.8 µM | [38] 25.2 µM | [39] 16.5 µM | [40] > 100 µM | [41] 40.9 µM | [42] 44 µM | [43] 18.7 µM | [44] > 100 µM | [45] 22.5 µM | [46] 24.2 µM | [67] 21.3 µM | [47] 19.7 µM | [49] 38.3 µM | [50] 19.1 µM | [51] > 10 µM | [52] 31.7 µM
